Data taken from publication PMC7838546, “A Thermostable, Modified Cathelicidin-Derived Peptide With Enhanced Membrane-Active Activity Against Salmonella enterica serovar Typhimurium” (Frontiers in Microbiology, 2021).
Ends that are not written are not given here.

How the values were obtained:
[1] = system: S. enterica serovar 4,5,12:i:- H2-043 (foodborne isolate); assay type: cell-based, Salmonella enterica serovar 4,5,12:i:-; conditions: H2-043, pork heart, resistant Amp, T, intermediate Cp; for MIC: broth microdilution, 37°C, 24 h
Protocol: (§1) Salmonella enterica serovar Typhimurium ATCC 13311, 24 drug-resistant foodborne and eleven drug-resistant human borne S. enterica serovar Typhimurium and 4,5,12:i:- isolates (Table 1) were used as test microorganisms. They were previously isolated for molecular characterization in 2014 and kindly provided by Dr. Soraya Chaturongakul (Mahidol University, Thailand) ([Huoy et al., 2014]). All bacteria were cultured in Tryptic Soy Broth (TSB) and incubated at 37°C for 18 h. Mueller Hinton Broth (MHB) was then used to wash and rinse the bacteria. The bacterial suspensions were then diluted to obtain concentrations of 10^7 CFU/ml for inoculations.
(§2) A modified version of the National Committee for Clinical Laboratory Standards (NCCLS) broth microdilution method ([Steinberg et al., 1997]) was used to determine the minimum inhibitory concentrations (MICs) of peptide and compared to that of nisin. Fifty microliters of two-fold serial dilutions of each peptide [0.98–250 μg/ml in 0.01% (v/v) acetic acid and 0.2% (w/v) bovine serum albumin (BSA, Sigma-Aldrich, MO, United States)], were incubated with 50 μl of bacterial suspensions (approximately 10^7 CFU/ml) at 37°C for 24 h in a shaking incubator. MICs were taken as the lowest concentration of peptide at which growth was inhibited as observed by visual inspection. Bacterial cultures without peptides and uncultured broth were used as positive and negative controls, respectively. Minimal bactericidal concentrations (MBCs) were determined using a colony count assay ([Clinical Laboratory Standards Institute [CLSI], 2015]). Fifty microliters of samples from each non-turbid well in the MIC determination experiment was plated on Mueller Hinton Agar (MHA) and colonies were observed after overnight incubation at 37°C. MBCs were designated as the least concentration showing no colony growth on the plate. All of experiments were performed in triplicate.

[2] = system: S. enterica serovar 4,5,12:i:- H2-075 (foodborne isolate); assay type: cell-based, Salmonella enterica serovar 4,5,12:i:-; conditions: H2-075, pork intestine, resistant Amp, T; for MIC: broth microdilution, 37°C, 24 h
Protocol: as §1, §2

[3] = system: S. enterica serovar 4,5,12:i:- H2-049 (foodborne isolate); assay type: cell-based, Salmonella enterica serovar 4,5,12:i:-; conditions: H2-049, pork intestine, resistant Amp, T, broth microdilution, 37°C, 24 h
Protocol: as §1, §2

[4] = system: S. enterica serovar 4,5,12:i:- H1-024 (clinical isolate); assay type: cell-based, Salmonella enterica serovar 4,5,12:i:-; conditions: H1-024, rectal swab, resistant Amc, Amp, Ctx, C, NA, SxT, intermediate Cp; for MIC: broth microdilution, 37°C, 24 h
Protocol: as §1, §2

[5] = system: S. enterica serovar 4,5,12:i:- H2-039 (foodborne isolate); assay type: cell-based, Salmonella enterica serovar 4,5,12:i:-; conditions: H2-039, pork intestine, resistant Amp, T; for MIC: broth microdilution, 37°C, 24 h
Protocol: as §1, §2

[6] = system: S. enterica serovar 4,5,12:i:- H2-054 (foodborne isolate); assay type: cell-based, Salmonella enterica serovar 4,5,12:i:-; conditions: H2-054, pork intestine, resistant Amp, T; for MIC: broth microdilution, 37°C, 24 h
Protocol: as §1, §2

[7] = system: S. enterica serovar 4,5,12:i:- H1-102 (clinical isolate); assay type: cell-based, Salmonella enterica serovar 4,5,12:i:-; conditions: H1-102, stool, resistant Amp, C, T, SxT, intermediate Amc; for MIC: broth microdilution, 37°C, 24 h
Protocol: as §1, §2

[8] = system: S. enterica serovar 4,5,12:i:- H2-038 (foodborne isolate); assay type: cell-based, Salmonella enterica serovar 4,5,12:i:-; conditions: H2-038, pork kidney, resistant Amp, T; for MIC: broth microdilution, 37°C, 24 h
Protocol: as §1, §2

[9] = system: S. enterica serovar 4,5,12:i:- H2-010 (foodborne isolate); assay type: cell-based, Salmonella enterica serovar 4,5,12:i:-; conditions: H2-010, pork skin, resistant Amp, C, T, broth microdilution, 37°C, 24 h
Protocol: as §1, §2

[10] = system: S. enterica serovar 4,5,12:i:- H1-100 (clinical isolate); assay type: cell-based, Salmonella enterica serovar 4,5,12:i:-; conditions: H1-100, stool, resistant Amp, C, Cp, T, SxT, intermediate Amc, NA; for MIC: broth microdilution, 37°C, 24 h
Protocol: as §1, §2

[11] = system: S. enterica serovar 4,5,12:i:- H2-009 (foodborne isolate); assay type: cell-based, Salmonella enterica serovar 4,5,12:i:-; conditions: H2-009, pork fat, resistant Amp, C, T, broth microdilution, 37°C, 24 h
Protocol: as §1, §2

[12] = system: S. enterica serovar 4,5,12:i:- H2-070 (foodborne isolate); assay type: cell-based, Salmonella enterica serovar 4,5,12:i:-; conditions: H2-070, pork liver, resistant Amp, Ctx, C, T, SxT, intermediate Cp; for MIC: broth microdilution, 37°C, 24 h
Protocol: as §1, §2

[13] = system: S. enterica serovar 4,5,12:i:- H2-042 (foodborne isolate); assay type: cell-based, Salmonella enterica serovar 4,5,12:i:-; conditions: H2-042, pork intestine, resistant Amp, C, T, SxT, intermediate Cp; for MIC: broth microdilution, 37°C, 24 h
Protocol: as §1, §2

[14] = system: S. enterica serovar 4,5,12:i:- H2-044 (foodborne isolate); assay type: cell-based, Salmonella enterica serovar 4,5,12:i:-; conditions: H2-044, pork kidney, resistant Amp, C, T, SxT, intermediate Cp; for MIC: broth microdilution, 37°C, 24 h
Protocol: as §1, §2

[15] = system: S. enterica serovar Typhimurium H1-011 (clinical isolate); assay type: cell-based, Salmonella enterica serovar Typhimurium; conditions: H1-011, stool, resistant Amp, T, intermediate Amc, Ctx, Cp, NA; for MIC: broth microdilution, 37°C, 24 h
Protocol: as §1, §2

[16] = system: Salmonella enterica serovar Typhimurium ATCC 13311; assay type: cell-based; conditions: ATCC 13311, standard strain, triplicate; for MIC: broth microdilution, ~10^7 CFU/ml, 37°C, 24 h
Protocol: as §1, §2

Substance | MIC [1] | MIC [2] | MIC [3] | MIC [4] | MIC [5] | MIC [6] | MIC [7] | MIC [8] | MIC [9] | MIC [10] | MIC [11] | MIC [12] | MIC [13] | MIC [14] | MIC [15] | MIC [16] | further results
KIAKRIWKILRR-NH2 [P7] | 7.81 (7.81) μg/ml | 7.81 (7.81) μg/ml | 3.91 µg/mL | 3.91 (3.91) μg/ml | 3.91 (3.91) μg/ml | 7.81 (7.81) μg/ml | 7.81 (7.81) μg/ml | 7.81 (7.81) μg/ml | 3.91 µg/mL | 7.81 (7.81) μg/ml | 3.91 µg/mL | 7.81 (7.81) μg/ml | 7.81 (7.81) μg/ml | 7.81 (7.81) μg/ml | 7.81 (7.81) μg/ml | 3.91 (3.91) μg/ml | MBC ([1]; colony count on MHA): 7.81 (7.81) μg/ml; MBC ([2]; colony count on MHA): 7.81 (7.81) μg/ml; MBC ([4]; colony count on MHA): 3.91 (3.91) μg/ml; MBC ([5]; colony count on MHA): 3.91 (3.91) μg/ml; MBC ([6]; colony count on MHA): 7.81 (7.81) μg/ml; MBC ([7]; colony count on MHA): 7.81 (7.81) μg/ml; MBC ([8]; colony count on MHA): 7.81 (7.81) μg/ml; MBC ([10]; colony count on MHA): 7.81 (7.81) μg/ml; MBC ([12]; colony count on MHA): 7.81 (7.81) μg/ml; MBC ([13]; colony count on MHA): 7.81 (7.81) μg/ml; MBC ([14]; colony count on MHA): 7.81 (7.81) μg/ml; MBC ([15]; colony count on MHA): 7.81 (7.81) μg/ml; MBC ([16]; colony count on MHA): 3.91 (3.91) μg/ml
Nisin: authorized food preservative peptide, binds lipid II and forms membrane pores (ITSISLCTPGCKTGALMGCNMKTATCHCSIHVSK; cysteine pairing not given here; also: lantibiotic nisin-A; UniProt P13068 24-57, looked up) | >1000 µg/mL | >1000 µg/mL | >1000 µg/mL | >1000 µg/mL | >1000 µg/mL | >1000 µg/mL | >1000 µg/mL | >1000 µg/mL | >1000 µg/mL | >1000 µg/mL | >1000 µg/mL | >1000 µg/mL | >1000 µg/mL | >1000 µg/mL | >1000 µg/mL | >1000 µg/mL | 
